Laboratory results reported in patent publication US20180289721A1, “FULVESTRANT COMPOSITIONS” (THEMIS MEDICARE LIMITED, priority 2015, published 2018).
Converted amounts (≈) assume the structure as drawn. Like-named read-outs stand apart in the source and are kept apart here.

Assays:
[1] = diethylene glycol monoethyl ether as the sole solvent, reported by Patel; cited from earlier work
[2] = Solubility studies of fulvestrant in solvents, co-solvents, oils and release rate modifiers; type: physicochemical; details: for solubility: read-out: Fulvestrant solubility achieved
Experimental: Solubility studies of fulvestrant were performed using various combinations of solvent, co-solvents, oils and release rate modifiers. The resultant data are shown herein below Table 1.

SMILES: C[C@]12CC[C@@H]3c4ccc(O)cc4C[C@@H](CCCCCCCCC[S+]([O-])CCCC(F)(F)C(F)(F)F)[C@H]3[C@@H]1CC[C@@H]2O (stereo partly drawn) [Fulvestrant, 7-alpha-[9-[(4,4,5,5,5-pentafluoropentyl)sulfinyl]nonyl]estra-1,3,5(10)-triene-3,17-beta-diol]
- solubility [1]: 58.80 mg/mL (≈ 96.9 mM)
- Fulvestrant solubility achieved ([2]; Benzyl alcohol (4 v/v %):Diethylene glycol monoethyl ether (q.s. to 1.7 mL)): 300 mg/1.7 mL
- Fulvestrant solubility achieved ([2]; Benzyl alcohol (5 v/v %):Diethylene glycol monoethyl ether (q.s. to 3.3 mL)): 500 mg/3.3 mL
- solubility ([2]; N-methyl pyrrolidone, organic solvent or mixture, N-methyl Pyrolidone): 250 mg/mL
- solubility ([2]; Polyethylene Glycol 400, organic solvent or mixture, Polyethylene Glycol 400): 11.1 mg/mL
- solubility ([2]; TCLS-101 (DMI), organic solvent or mixture, TCLS-101 (DMI)): 30.8 mg/mL
- solubility ([2]; oil or lipid, Benzyl alcohol (4 v/v %):Benzyl benzoate (10 w/v %):Castor oil (50 v/v %):Diethylene glycol monoethyl ether (q.s. to 1 mL)): 56 mg/mL
- solubility ([2]; oil or lipid, Benzyl alcohol (4 v/v %):Diethylene glycol monoethyl ether (31 v/v %):Castor oil (q.s. to 1 mL)): 30 mg/mL
- solubility ([2]; oil or lipid, Benzyl alcohol (4 v/v %):Diethylene glycol monoethyl ether (46 v/v %):Castor oil (q.s. to 1 mL)): 125 mg/mL
- solubility ([2]; oil or lipid, Benzyl alcohol (10 v/v %):Castor oil (50 v/v %):Diethylene glycol monoethyl ether (q.s. to 1 mL)): 151 mg/mL
- solubility ([2]; organic solvent or mixture, Benzyl alcohol (2 v/v %):Diethylene glycol monoethyl ether (q.s. to 1 mL)): 200 mg/mL
- solubility ([2]; organic solvent or mixture, Benzyl alcohol (2 v/v %):MCT oil (1 v/v %):Diethylene glycol monoethyl ether (q.s. to 1 mL)): 200 mg/mL
- solubility ([2]; organic solvent or mixture, Benzyl alcohol (4 v/v %):Diethylene glycol monoethyl ether (q.s. to 1.7 mL)): 176 mg/mL
- solubility ([2]; organic solvent or mixture, Benzyl alcohol (5 v/v %):Diethylene glycol monoethyl ether (q.s. to 3.3 mL)): 151 mg/mL
